Reference: patent US8673910B2, “Proteasome inhibitors for selectively inducing apoptosis in cancer cells” (H. Lee Moffitt Cancer Center and Research Institute, priority 2008, dated 2014)

SMILES	melting point
CN(C)C1=C(Nc2ccc(S(=O)(=O)Nc3ccccn3)cc2)C(=O)c2ccccc2C1=O [Compound 3a, 4-(3-(dimethylamino)-1,4-dioxo-1,4-dihydronaphthalen-2-ylamino)-N-(pyridin-2-yl)-benzenesulfonamide]	118 to 120 °C
COc1cc(NS(=O)(=O)c2ccc(NC3=C(Cl)C(=O)c4ccccc4C3=O)cc2)nc(OC)n1 [Compound 2i, 4-(3-chloro-1,4-dioxo-1,4-dihydronaphthalen-2-ylamino)-N-(2,6-dimethoxypyrimidin-4-yl)-benzenesulfonamide]	220 to 222 °C
O=C1C(Cl)=C(N(Cc2ccc([N+](=O)[O-])cc2)c2ccc(S(=O)(=O)Nc3ccccn3)cc2)C(=O)c2ccccc21 [Compound 6e, 4-((3-chloro-1,4-dioxo-1,4-dihydronaphthalen-2-yl)(4-nitrobenzyl)amino)-N-(pyridin-2-yl)benzenesulfonamide]	80 to 82 °C
O=C1C=C(Nc2ccc(S(=O)(=O)Nc3ccccn3)cc2)C(=O)c2ccccc21 [Compound 2r, 4-(1,4-dioxo-1,4-dihydronaphthalen-2-ylamino)-N-(pyridin-2-yl)benzenesulfonamide]	286 °C (dec.)
CC1=C(Nc2ccc(S(=O)(=O)Nc3ccccn3)cc2)C(=O)c2ccccc2C1=O [Compound 2k, 4-(3-methyl-1,4-dioxo-1,4-dihydronaphthalen-2-ylamino)-N-(pyridin-2-yl)benzenesulfonamide]	220 to 222 °C
COc1cc(NS(=O)(=O)c2ccc(NC3=C(C)C(=O)c4ccccc4C3=O)cc2)nc(OC)n1 [Compound 2n, N-(2,6-dimethoxypyrimidin-4-yl)-4-(3-methyl-1,4-dioxo-1,4-dihydronaphthalen-2-ylamino)-benzenesulfonamide]	255 to 257 °C
O=C(NS(=O)(=O)c1ccc(NC2=CC(=O)c3ccccc3C2=O)cc1)c1ccccc1 [Compound 2p, N-(4-(1,4-dioxo-1,4-dihydronaphthalen-2-ylamino)phenylsulfonyl)benzamide]	294 to 296 °C
O=C(NS(=O)(=O)c1ccc(NC2=C(Cl)C(=O)c3ccccc3C2=O)cc1)c1ccccc1 [Compound 2c, N-(4-(3-chloro-1,4-dioxo-1,4-dihydronaphthalen-2-ylamino)phenylsulfonyl)benzamide]	216 to 217 °C
CCCCN(C1=C(Cl)C(=O)c2ccccc2C1=O)c1ccc(S(=O)(=O)Nc2ccccn2)cc1 [Compound 6c, 4-(butyl(3-chloro-1,4-dioxo-1,4-dihydronaphthalen-2-yl)amino)-N-(pyridin-2-yl)benzenesulfonamide]	181 to 183 °C
O=C1C(Cl)=C(N(Cc2ccccc2)c2ccc(S(=O)(=O)Nc3ccccn3)cc2)C(=O)c2ccccc21 [Compound 6d, 4-(benzyl(3-chloro-1,4-dioxo-1,4-dihydronaphthalen-2-yl)amino)-N-(pyridin-2-yl)benzenesulfonamide]	78 to 80 °C
N=C(N)NS(=O)(=O)c1ccc(NC2=C(Cl)C(=O)c3ccccc3C2=O)cc1 [YG1-084, N-carbamimidoyl-4-(3-chloro-1,4-dioxo-1,4-dihydronaphthalen-2-ylamino)benzene-sulfonamide]	294 to 295 °C
CN(Cc1ccccc1)C1=C(Nc2ccc(S(=O)(=O)Nc3ccccn3)cc2)C(=O)c2ccccc2C1=O [Compound 3b, 4-(3-(benzyl(methyl)amino)-1,4-dioxo-1,4-dihydronaphthalen-2-ylamino)-N-(pyridin-2-yl)-benzenesulfonamide]	135 to 140 °C
COc1cnc(NS(=O)(=O)c2ccc(NC3=C(Cl)C(=O)c4ccccc4C3=O)cc2)nc1 [Compound 2e, 4-(3-chloro-1,4-dioxo-1,4-dihydronaphthalen-2-ylamino)-N-(5-methoxypyrimidin-2-yl)benzenesulfonamide]	269 to 271 °C
CCN(C1=C(Cl)C(=O)c2ccccc2C1=O)c1ccc(S(=O)(=O)Nc2ccccn2)cc1 [Compound 6b, 4-((3-chloro-1,4-dioxo-1,4-dihydronaphthalen-2-yl)(ethyl)amino)-N-(pyridin-2-yl)benzenesulfonamide]	180 to 182 °C
Cc1ccnc(NS(=O)(=O)c2ccc(NC3=C(Cl)C(=O)c4ccccc4C3=O)cc2)n1 [Compound 2j, 4-(3-chloro-1,4-dioxo-1,4-dihydronaphthalen-2-ylamino)-N-(4-methylpyrimidin-2-yl)-benzenesulfonamide]	246 to 248 °C
CC1=C(Nc2ccc(S(=O)(=O)NC(=O)c3ccccc3)cc2)C(=O)c2ccccc2C1=O [Compound 2l, N-(4-(3-methyl-1,4-dioxo-1,4-dihydronaphthalen-2-ylamino)phenylsulfonyl)benzamide]	235 to 237 °C
COc1cnc(NS(=O)(=O)c2ccc(NC3=C(C)C(=O)c4ccccc4C3=O)cc2)nc1 [Compound 2m, N-(5-methoxypyrimidin-2-yl)-4-(3-methyl-1,4-dioxo-1,4-dihydronaphthalen-2-ylamino)-benzenesulfonamide]	215 to 217 °C
O=C1C(Cl)=C(N(Cc2ccc(C(F)(F)F)cc2)c2ccc(S(=O)(=O)Nc3ccccn3)cc2)C(=O)c2ccccc21 [Compound 6h, 4-((3-chloro-1,4-dioxo-1,4-dihydronaphthalen-2-yl)(4-(trifluoromethyl)benzyl)amino)-N-(pyridin-2-yl)benzenesulfonamide]	157 to 159 °C
CN1CCN(C2=C(Nc3ccc(S(=O)(=O)Nc4ccccn4)cc3)C(=O)c3ccccc3C2=O)CC1 [Compound 3c, 4-(3-(4-methylpiperazin-1-yl)-1,4-dioxo-1,4-dihydronaphthalen-2-ylamino)-N-(pyridin-2-yl)-benzenesulfonamide]	222 to 224 °C
O=C1C(Cl)=C(N(Cc2ccc3ccccc3c2)c2ccc(S(=O)(=O)Nc3ccccn3)cc2)C(=O)c2ccccc21 [Compound 6f, 4-((3-chloro-1,4-dioxo-1,4-dihydronaphthalen-2-yl)(naphthalen-2-ylmethyl)amino)-N-(pyridin-2-yl)benzenesulfonamide]	165 to 167 °C
CN(C1=C(Cl)C(=O)c2ccccc2C1=O)c1ccc(S(=O)(=O)Nc2ccccn2)cc1 [Compound 6a, 4-((3-chloro-1,4-dioxo-1,4-dihydronaphthalen-2-yl)(methyl)amino)-N-(pyridin-2-yl)benzenesulfonamide]	152 to 154 °C
Cc1ccc(CN(C2=C(Cl)C(=O)c3ccccc3C2=O)c2ccc(S(=O)(=O)Nc3ccccn3)cc2)cc1 [Compound 6g, 4-((3-chloro-1,4-dioxo-1,4-dihydronaphthalen-2-yl)(4-methylbenzyl)amino)-N-(pyridin-2-yl)benzenesulfonamide]	99 to 101 °C
O=C1C(Nc2ccc(S(=O)(=O)Nc3ccccn3)cc2)=C(N2CCOCC2)C(=O)c2ccccc21 [Compound 3e, 4-(3-morpholino-1,4-dioxo-1,4-dihydronaphthalen-2-ylamino)-N-(pyridin-2-yl)benzenesulfonamide]	220 to 222 °C
Cc1cc(C)nc(NS(=O)(=O)c2ccc(NC3=C(Cl)C(=O)c4ccccc4C3=O)cc2)n1 [Compound 2g, 4-(3-chloro-1,4-dioxo-1,4-dihydronaphthalen-2-ylamino)-N-(4,6-dimethylpyrimidin-2-yl)benzenesulfonamide]	210 °C (dec.)

Other lines, results leading:

melting point	SMILES
213 to 216 °C	COc1cccc(NS(=O)(=O)c2ccc(NC3=C(Cl)C(=O)c4ccccc4C3=O)cc2)c1 [Compound 13e, 4-(3-chloro-1,4-dioxo-1,4-dihydro-naphthalen-2-ylamino)-N-(3-methoxy-phenyl)-benzenesulfonamide]
197 to 200 °C	COc1cc(NC2=C(Cl)C(=O)c3ccccc3C2=O)ccc1S(=O)(=O)Nc1ccccc1C [Compound 13h, 4-(3-chloro-1,4-dioxo-1,4-dihydro-naphthalen-2-ylamino)-2-methoxy-N-o-tolyl-benzenesulfonamide]
264 to 267 °C	COc1cc(NC2=C(Cl)C(=O)c3ccccc3C2=O)ccc1S(=O)(=O)Nc1cccc(C)c1 [Compound 13k, 4-(3-chloro-1,4-dioxo-1,4-dihydro-naphthalen-2-ylamino)-2-methoxy-N-m-tolyl-benzenesulfonamide]
165 to 167 °C	COc1ccc(NS(=O)(=O)c2ccc(NC3=C(Cl)C(=O)c4ccccc4C3=O)cc2OC)cc1 [Compound 13j, 4-(3-chloro-1,4-dioxo-1,4-dihydro-naphthalen-2-ylamino)-2-methoxy-N-(4-methoxy-phenyl)-benzenesulfonamide]
257 to 260 °C	Cc1ccc(NS(=O)(=O)c2ccc(NC3=C(Cl)C(=O)c4ccccc4C3=O)cc2)cc1 [Compound 13g, 4-(3-chloro-1,4-dioxo-1,4-dihydro-naphthalen-2-ylamino)-N-p-tolyl-benzenesulfonamide]
186 to 189 °C	COc1cc(NC2=C(Cl)C(=O)c3ccccc3C2=O)ccc1S(=O)(=O)Nc1ccc(C)cc1 [Compound 13i, 4-(3-chloro-1,4-dioxo-1,4-dihydro-naphthalen-2-ylamino)-2-methoxy-N-p-tolyl-benzenesulfonamide]
198 to 201 °C	COc1ccccc1NS(=O)(=O)c1ccc(NC2=C(Cl)C(=O)c3ccccc3C2=O)cc1 [Compound 13d, 4-(3-chloro-1,4-dioxo-1,4-dihydro-naphthalen-2-ylamino)-N-(2-methoxy-phenyl)-benzenesulfonamide]
234 to 237 °C	Cc1cccc(NS(=O)(=O)c2ccc(NC3=C(Cl)C(=O)c4ccccc4C3=O)cc2)c1 [Compound 13c, 4-(3-chloro-1,4-dioxo-1,4-dihydro-naphthalen-2-ylamino)-N-m-tolyl-benzenesulfonamide]
233 to 234 °C	COc1ccc(NS(=O)(=O)c2ccc(NC3=C(Cl)C(=O)c4ccccc4C3=O)cc2)cc1 [Compound 13f, 4-(3-chloro-1,4-dioxo-1,4-dihydro-naphthalen-2-ylamino)-N-(4-methoxy-phenyl)-benzenesulfonamide]
220 to 223 °C	O=C1C(Cl)=C(Nc2ccc(S(=O)(=O)Nc3ccccc3)cc2)C(=O)c2ccccc21 [Compound 13b, 4-(3-chloro-1,4-dioxo-1,4-dihydro-naphthalen-2-ylamino)-N-phenyl-benzenesulfonamide]
